Data on eight compounds can be found in patent US9365619B2, “IgG-binding peptide and method for detecting and purifying IgG using same” (Otsuka Chemical Co., Ltd., priority 2011, dated 2016).

The target in this experiment is human IgG. In words: Surface plasmon resonance (SPR) analysis of synthetic peptide binding to human IgG. The note with it: for affinity compared with the original peptide, in words: compared with GFc-C35-3/15. The method, then:
In order to narrow down the amino acid region to be studied, a peptide in which one amino acid was deleted from each end of GFc-C35 (GFc-C35-2/16) and a peptide in which two amino acids were deleted from each end of CFc-C35 (GFc-C35-3/15) were synthesized. Among these peptides, based on the GFc-C35-3/15 synthetic peptide, the effect of the introduction of amino acid mutations on affinity was evaluated. That is, the contribution of each amino acid substitution to affinity was evaluated by synthesizing peptides substituted with frequently or occasionally observed amino acids obtained from the phage libraries and subjecting the resulting synthetic peptides to binding analysis.
Based on the synthetic peptide C35A, peptides substituted with amino acids observed at high frequency in the aforementioned phage libraries were synthesized by introducing amino acid mutations, and in a similar manner to the above, their binding to human IgG was analyzed by surface plasmon resonance (SPR) analysis to evaluate the contribution of each amino acid substitution to affinity.
A general note: In SPR one partner is held on a chip, and binding of the other changes the refractive index at the surface.

Where [1] appears, read: SPR, synthetic peptide binding to human IgG, read-out: Kd.

By Kd is commonly meant a measure of binding affinity in units of concentration.

Like-named read-outs stand apart in the source and are kept apart here. Bridge positions count the residues as written; N and C are the ends. Peptide text beside a SMILES is read from it.

On to `CC(C)C[C@@H]1NC(=O)[C@H](CC(N)=O)NC(=O)CNC(=O)[C@H](CC(N)=O)NC(=O)[C@H](CO)NC(=O)[C@H](Cc2ccc(O)cc2)NC(=O)[C@H]([C@@H](C)O)NC(=O)[C@@H](NC(=O)[C@@H](N)CC(=O)O)CSSC[C@@H](C(=O)N[C@H](C(N)=O)[C@@H](C)O)NC(=O)[C@H](Cc2c[nH]c3ccccc23)NC(=O)[C@H](C(C)C)NC1=O` [GFc-C35-3/15 (T7S), DCTYSNGNLVWCT] (H-DCTYSNGNLVWCT-NH2; disulfide 2-12), for which the Kd under setting [1] is 26 µM.
Same read-out and setting: to `CC(C)C[C@@H]1NC(=O)[C@H](CC(N)=O)NC(=O)CNC(=O)[C@H](CC(N)=O)NC(=O)[C@H]([C@@H](C)O)NC(=O)[C@H](Cc2ccc(O)cc2)NC(=O)[C@H]([C@@H](C)O)NC(=O)[C@@H](NC(=O)[C@@H](N)CC(=O)O)CSSC[C@@H](C(=O)N[C@@H](CO)C(N)=O)NC(=O)[C@H](Cc2c[nH]c3ccccc23)NC(=O)[C@H](C(C)C)NC1=O` [GFc-C35-3/15 (T15S), DCTYTNGNLVWCS] (H-DCTYTNGNLVWCS-NH2; disulfide 2-12) belongs 34 µM; to `CC[C@H](C)[C@@H]1NC(=O)[C@H](CC(C)C)NC(=O)[C@H](CC(N)=O)NC(=O)CNC(=O)[C@H](CC(N)=O)NC(=O)[C@H]([C@@H](C)O)NC(=O)[C@H](Cc2ccc(O)cc2)NC(=O)[C@H]([C@@H](C)O)NC(=O)[C@@H](NC(=O)[C@@H](N)CC(=O)O)CSSC[C@@H](C(=O)N[C@H](C(N)=O)[C@@H](C)O)NC(=O)[C@H](Cc2c[nH]c3ccccc23)NC1=O` [GFc-C35-3/15 (V12I), DCTYTNGNLIWCT] (H-DCTYTNGNLIWCT-NH2; disulfide 2-12), 12 µM.
Regarding `CC(C)C[C@@H]1NC(=O)[C@H](CC(N)=O)NC(=O)CNC(=O)[C@H](CC(N)=O)NC(=O)[C@H]([C@@H](C)O)NC(=O)[C@H](Cc2ccccc2)NC(=O)[C@H]([C@@H](C)O)NC(=O)[C@@H](NC(=O)[C@@H](N)CC(=O)O)CSSC[C@@H](C(=O)N[C@H](C(N)=O)[C@@H](C)O)NC(=O)[C@H](Cc2c[nH]c3ccccc23)NC(=O)[C@H](C(C)C)NC1=O` [GFc-C35-3/15 (Y6F), DCTFTNGNLVWCT] (H-DCTFTNGNLVWCT-NH2; disulfide 2-12), the “affinity compared with the original peptide, in words” value was “greatly reduced affinity”. In addition, under setting [1], the Kd was 2100 µM.
For `CC(C)C[C@@H]1NC(=O)[C@H](CC(N)=O)NC(=O)CNC(=O)[C@H](CC(N)=O)NC(=O)[C@H]([C@@H](C)O)NC(=O)[C@H](Cc2c[nH]c3ccccc23)NC(=O)[C@H]([C@@H](C)O)NC(=O)[C@@H](NC(=O)[C@@H](N)CC(=O)O)CSSC[C@@H](C(=O)N[C@H](C(N)=O)[C@@H](C)O)NC(=O)[C@H](Cc2c[nH]c3ccccc23)NC(=O)[C@H](C(C)C)NC1=O` [GFc-C35-3/15 (Y6W), DCTWTNGNLVWCT] (H-DCTWTNGNLVWCT-NH2; disulfide 2-12), the “affinity compared with the original peptide, in words” value was “increased affinity”. In addition, the Kd under setting [1] is 50 µM.
As to `CC(C)C[C@@H]1NC(=O)[C@H](CC(N)=O)NC(=O)CNC(=O)[C@H](CC(N)=O)NC(=O)[C@H]([C@@H](C)O)NC(=O)[C@H](Cc2ccc(O)cc2)NC(=O)[C@H]([C@@H](C)O)NC(=O)[C@@H](NC(=O)[C@@H](N)CC(=O)O)CSSC[C@@H](C(=O)N[C@H](C(N)=O)[C@@H](C)O)NC(=O)[C@H](Cc2c[nH]c3ccccc23)NC(=O)[C@H](C(C)C)NC1=O` [GFc-C35-3/15, DCTYTNGNLVWCT] (H-DCTYTNGNLVWCT-NH2; disulfide 2-12), the Kd under setting [1] was determined as 130 µM.
With `CC(C)C[C@@H]1NC(=O)[C@H](CCC(=O)O)NC(=O)CNC(=O)[C@H](CCCNC(=N)N)NC(=O)[C@H](Cc2c[nH]cn2)NC(=O)[C@H](Cc2ccc(O)cc2)NC(=O)[C@H](C)NC(=O)[C@@H](NC(=O)[C@H](CC(=O)O)NC(=O)[C@@H]2CCCN2C(=O)CN)CSSC[C@@H](C(=O)N[C@H](C(=O)N[C@@H](Cc2ccccc2)C(=O)N[C@@H](Cc2c[nH]cn2)C(N)=O)[C@@H](C)O)NC(=O)[C@H](Cc2c[nH]c3ccccc23)NC(=O)[C@H](C(C)C)NC1=O` [Peptide C35A, GPDCAYHRGELVWCTFH] (H-GPDCAYHRGELVWCTFH-NH2; disulfide 4-14), the Kd under setting [1] amounted to 0.009 µM.
`CC(C)C[C@@H]1NC(=O)[C@H](CCC(=O)O)NC(=O)CNC(=O)[C@H](CCCNC(=N)N)NC(=O)[C@H](Cc2c[nH]cn2)NC(=O)[C@H](Cc2ccc(O)cc2)NC(=O)[C@H](C)NC(=O)[C@@H](NC(=O)[C@@H](N)CCCNC(=N)N)CSSC[C@@H](C(=O)N[C@@H](CO)C(N)=O)NC(=O)[C@H](Cc2c[nH]c3ccccc23)NC(=O)[C@H](C(C)C)NC1=O` [RCAYHRGELVWCS] (H-RCAYHRGELVWCS-NH2; disulfide 2-12): under “SPR sensorgram analysis, human IgG, read-out: affinity (Kd value)”, the Kd is 0.147 µM.
